The test system of data set [1] is male Sprague Dawley rats. Kind of data set: gastric emptying, phenol red method. Type of data set: in vivo. As to conditions: 10 mg/kg orally, 20 minutes after phenol red meal; control 64.94%. The protocol: (§1) A composition of asafoetida and milk thistle extract in a ratio of 1:3 was evaluated for effects on gastric emptying and gastrointestinal transit is Sprague-Dawley rats. Twenty-four male Sprague Dawley (SD) rats (190-200 g) were divided into four groups, each group consisted of six animals with less than 20% mean body weight range. Group I served as control group, Group II referenced standard Domiperidone, Groups III and IV were administered the composition. During experimentation, animals were housed under standard husbandry conditions at a temperature of 22±3° C., relative humidity (30-70%) and a light:dark cycle of 12:12 h. […]
(§2) All treatments were given for seven days daily in the morning except reference standard and on day 8th after fasted for 16 h all groups were administered with respective doses of the composition or standard drug Domperidone. Gastric emptying was measured by the use of phenol red method as described previously (Kawachi et al. 2011). […] The amount of phenol red in the supernatant was determined based on the absorbance at 570 nm measured using a microplate reader (Multiskan EX, Thermo Scientific). […] Gastric emptying was calculated using the formula: (1−amount of phenol red in the test sample/amount of phenol red in the standard sample)×100.
The percentage gastric emptying was assessed after 20 minutes of phenol red meal administration in rats. […]

Data set [2] concerns male Sprague Dawley rats. Kind of data set: gastrointestinal transit (GIT). Type of data set: in vivo. As to conditions: single dose (10 mg/kg), p<0.001. The method, then: as §1
as §2, with “sample)×100. […]” for “sample)×100.”
The composition in beadlet form was evaluated for efficacy in alleviating the delayed gastric emptying using an animal model. […]

A short description of data set [3]: body weight in the gastric emptying study. As to conditions: 10 mg/kg orally. Type of data set: in vivo, Sprague Dawley rats. The protocol:
A composition of asafoetida and milk thistle extract in a ratio of 1:3 was evaluated for effects on gastric emptying and gastrointestinal transit is Sprague-Dawley rats. Twenty-four male Sprague Dawley (SD) rats (190-200 g) were divided into four groups, each group consisted of six animals with less than 20% mean body weight range. Group I served as control group, Group II referenced standard Domiperidone, Groups III and IV were administered the composition. During experimentation, animals were housed under standard husbandry conditions at a temperature of 22±3° C., relative humidity (30-70%) and a light:dark cycle of 12:12 h. Animals were allowed free access to pellet feed and UV purified water.
Body weights of each animal group were measured at initiation of experiment, on day 7, and fasting on day 8.

Molecules are shown by their SMILES.

`O=c1[nH]c2ccccc2n1CCCN1CCC(n2c(=O)[nH]c3cc(Cl)ccc32)CC1` [Domperidone] gave a percentage gastric emptying in the data set with male Sprague Dawley rats [1] of 78.86%. Also, the “GIT compared to control” value with male Sprague Dawley rats [2] was “significant increase”. The Body weight in data set [3] (Day 7) amounted to 228.69 ± 12.07 g; in data set [3] (Fasting (Day 8)), 211.9 ± 11.72 g; in data set [3] (Initial), 209.68 ± 9.71 g.

Values taken from patent US11338006B2, “Composition and method for promoting digestive health” (Vidy Herbs, Inc., priority 2018, dated 2022).
